Tests used:
Type in all cases: in vivo
[1] = system: Zucker diabetic fatty (ZDF) rat; assay: Fructosamine and HbA1c in ZDF rats (Example 3); settings: vs vehicle ZDF
Procedure: (§1) For the groups treated with AB14, the antibody was administered once weekly via the caudal vein (i.v., 5 mL/kg) on days 1, 8, 15, and 22 at two different doses 20 mg/kg/week (groups 3 and 7) or 60 mg/kg/week (groups 4 and 8). All other groups were treated once weekly with vehicle 1 (i.v., 5 mL/kg). The intravenous treatments were performed in the morning on day 1, 8, 15, and 22 while under isoflurane anaesthesia. The volume of administration was individually adapted according to the most recent body weight.
(§2) All other groups were treated daily with vehicle 2 (p.o., 5 mL/kg) for 28 days. The most recent body weight was used to calculate the average volume of administration in each group.
(§3) Fasting blood glucose (glucometers) was measured on days 0, 12, 19, and 26. Fasting plasma insulin, peptide-C (ELISA method), free fatty acids, triglycerides, total cholesterol (colorimetric method), and HDL-cholesterol (phosphotungstate precipitation, colorimetric method) were measured on day 0, and prior to dosing on days 12, 19, and day 26. Non HDL-cholesterol was calculated as total cholesterol—HDL-cholesterol. Fructosamine was measured on days 0, 19 and 28. HbA1c (DCA 2000) was measured on days 0 and 28.

[2] = system: Zucker diabetic fatty (ZDF) rat; assay: Plasma triglycerides, free fatty acids and cholesterol in ZDF rats (Example 3); settings: for increase of plasma HDL-cholesterol / decrease of plasma non HDL-cholesterol levels: vs vehicle; for lowering of plasma free fatty acids levels: vs vehicle ZDF
Procedure: as §1, §2
(§4) A fasting (6 hours on day 0 from 8:00 am to 02:00 pm, and overnight on day 12, 19 and 26 from ˜6:00 pm to ˜8:00 am) was performed before each blood collection. Blood was collected at ˜2:00 pm, from the tip of the tail, on day 0 (before screening, 150 μL, potassium EDTA), and at ˜8:00 am prior to dosing on days 12 (110 μL, potassium EDTA), 19 (150 μL, potassium EDTA) and 26, (110 μL, potassium EDTA).
as §3

[3] = system: Zucker diabetic fatty (ZDF) rat; assay: Oral glucose tolerance test on day 26 in ZDF rats (Example 3)
Procedure: The oral glucose tolerance test (OGTT) was performed as follows. On day 25, rats were fasted at ˜6:00 pm and an oral glucose tolerance test was performed the day after (on day 26). At ˜8:00 am (T-60) a blood collection (110 μL, EDTA) was performed for biochemical parameters measurements. One hour after (˜09:00 am), an oral glucose bolus (1.5 g/kg) was administered (T0). Blood glucose was measured (glucometer or colorimetric method in case of high glycaemia) on T-60, T0, T15, T30, T60, T90, T120, and T180 minutes. Area under the curve (AUC) was calculated based on the blood glucose values measured at T0. Plasma insulin and C-peptide were measured (ELISA method) on T-60, T15 (·40 μL of blood, EDTA), and T30 minutes (·40 μL of blood, EDTA).

[4] = system: Zucker diabetic fatty (ZDF) rat; assay: Fasting blood glucose, plasma insulin, C-peptide and HOMA-IR in ZDF rats (Example 3); settings: vs vehicle ZDF
Procedure: as §1, §2, §4, §3

[5] = system: Zucker diabetic fatty (ZDF) rat; assay: Body weight and food intake in ZDF rats (Example 3); settings: pioglitazone 10 mg/kg/day, vs vehicle ZDF
Procedure: as §1, with “weight. […] All other groups were treated daily with vehicle 2 (p.o., 5 mL/kg) for 28 days. The most recent body weight was used to calculate the average volume of administration in each group. Body weight was measured twice a week during the 4 weeks of treatment. Food consumption was measured just before the screening procedure and then twice weekly over 24 h during the first three weeks of treatment. Food consumption was measured once weekly during the week of OGTT (week 4).” for “weight.”

[6] = day 12, pioglitazone 10 mg/kg/day
[7] = day 19, pioglitazone 10 mg/kg/day
[8] = day 26, pioglitazone 10 mg/kg/day
[9] = OGTT day 26, pioglitazone 10 mg/kg/day, vs vehicle ZDF
[10] = days 12, 19 and 26, pioglitazone 10 mg/kg/day

CCc1ccc(CCOc2ccc(CC3SC(=O)NC3=O)cc2)nc1 (centres unmarked) [pioglitazone]
decrease of HbA1c ([1]; 28 days, pioglitazone 10 mg/kg/day, metformin 200 mg/kg/day): 44%
reduction of fructosamine levels ([1]; day 19, pioglitazone 10 mg/kg/day, metformin 200 mg/kg/day): 30%
reduction of fructosamine levels ([1]; day 28, pioglitazone 10 mg/kg/day): 25%
increase of plasma HDL-cholesterol [2, 6]: 38%
lowering of plasma free fatty acids levels [2, 6]: 35%
decrease of plasma non HDL-cholesterol levels [2, 7]: 49%
increase of plasma HDL-cholesterol [2, 7]: 17%
lowering of plasma free fatty acids levels [2, 7]: 17%
decrease of plasma non HDL-cholesterol levels [2, 8]: 47%
increase of plasma HDL-cholesterol [2, 8]: 19%
lowering of plasma free fatty acids levels [2, 8]: 30%
increase of C-peptide secretion (relative to T-60) at T15 [3, 9]: 21%
increase of C-peptide secretion (relative to T-60) at T30 [3, 9]: 22%
increase of insulin secretion (relative to T-60) at T30 [3, 9]: 5%
increase of insulin secretion (relative to T-60) at T15 ([3]; OGTT day 26, vs vehicle ZDF (pioglitazone 10 mg/kg/day)): 20%
reduction in blood glucose AUC (OGTT) ([3]; day 26, pioglitazone 10 mg/kg/day, metformin 200 mg/kg/day, vs vehicle ZDF): 54%
reduction of HOMA-IR [4, 6]: 67%
reduction of HOMA-IR [4, 7]: 62%
reduction of HOMA-IR [4, 8]: 54%
plasma C-peptide levels [4, 10]: no effect
plasma insulin levels [4, 10]: no effect
body weight gain at the end of the treatment [5]: 3 fold
increase of cumulative food intake ([5]; NS): 14%
